Data: patent US9238647B2, “P2X3 receptor antagonists for treatment of pain” (Merck Sharp & Dohme Corp., priority 2009, dated 2016)

Molecular target: T1, human P2X3 (Homo sapiens, UniProt P56373)
T1 construct: expressed in transfected cells
T1 sequence (P56373 1-397): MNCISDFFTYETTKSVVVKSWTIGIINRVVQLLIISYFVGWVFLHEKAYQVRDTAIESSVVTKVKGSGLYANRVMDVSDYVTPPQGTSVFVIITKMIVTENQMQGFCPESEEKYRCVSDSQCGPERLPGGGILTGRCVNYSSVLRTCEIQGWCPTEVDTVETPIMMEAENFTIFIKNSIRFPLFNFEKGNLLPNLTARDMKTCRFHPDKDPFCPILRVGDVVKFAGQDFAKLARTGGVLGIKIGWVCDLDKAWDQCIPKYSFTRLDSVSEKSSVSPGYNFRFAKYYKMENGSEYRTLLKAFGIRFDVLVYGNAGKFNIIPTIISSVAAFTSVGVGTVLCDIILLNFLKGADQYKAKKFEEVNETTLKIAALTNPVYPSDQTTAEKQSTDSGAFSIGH
Test: Intracellular Calcium Measurement to Assess Antagonist Affinity (FLIPR, Fluo-4, α,β-meATP agonist)
Assay type: cell-based
Conditions: cells expressing human P2X3; agonist α,β-meATP at EC50; antagonist added 10 min before agonist
Source text: Generation of a Human P2X3 and P2X2/3 Stable Cell Line—Human P2X3 receptor cDNA (Accession number NM_002559) was subcloned as a 5′XhoI and 3′HindIII fragment into the expression vector pcDNA5/FRT (Invitrogen). Human P2X2 receptor cDNA (Accession number NM_174873) was subcloned as a 5′EcoRI and 3′NotI fragment into the expression vector pIRESneo2 (BD Biosciences Clontech). The human P2X3 expression construct was transfected using Lipofectamine 2000 (Invitrogen) into Flp-in-293 cells (Invitrogen) according to the manufacturer's directions. Cells positive for flp-mediated recombination of […] P2X3 were selected using 150 μg/ml hygromycin. […]
Intracellular Calcium Measurement to Assess Antagonist Affinity—A fluorescent imaging plate reader (FLIPR; Molecular Devices) was used to monitor intracellular calcium levels using the calcium-chelating dye Fluo-4 (Molecular Probes). The excitation and emission wavelengths used to monitor fluorescence were 488 nm and 530 nm, respectively. […] During this period fluorescence data is collected at 3 sec intervals followed by 10 sec intervals. […] Following agonist addition fluorescence was measured at 5 sec intervals and analyzed based on the increase in peak relative fluorescence units (RFU) compared to the basal fluorescence. […]

IC50: 0.2 µM
SMILES: Cc1ccc(-c2cc(C(=O)N[C@H](C)c3ccc(C(F)(F)F)nc3)cc3nncn23)cc1 [Example 4.3, 5-(4-Methylphenyl)-N-{(1R)-1-[6-(trifluoromethyl)pyridin-3-yl]ethyl}[1,2,4]triazolo[4,3-a]pyridine-7-carboxamide]
